The experiment has as its system HCT116. The conditions noted are these: 72 h. The procedure, abridged: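 HCT116 cells were plated at 250 per well in 1536-well plates and allowed 5 h to attach. CellTiter-Glo luminescence was normalized to vehicle as 0% and positive control as -100%, followed by pattern correction. Four-parameter Hill fits provided IC50 and maximal efficacy.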

Data on 54 molecules can be found in the supplement of paper PMC12137928.

Structures can show the parent of a compound that is named as a salt.

In the case of `N#Cc1ccc2c(c1)N(CCCN1CCC(O)CC1)c1ccccc1S2` [PERICIAZINE], the IC50 cell viability was greater than 45.8 µM (ICRF193 0 nM) and greater than 45.8 µM (ICRF193 200 nM).
With `CC(=O)Nc1cc([As](=O)(O)O)ccc1O` [Acetarsol], the IC50 cell viability was greater than 45.8 µM (ICRF193 0 nM) and greater than 45.8 µM (ICRF193 200 nM).
Turning to `CN1[C@H]2CC[C@@H]1[C@@H](C(=O)O)[C@@H](OC(=O)c1ccccc1)C2` [Benzoylecgonine], the IC50 cell viability runs as follows: (ICRF193 0 nM) greater than 45.8 µM; (ICRF193 200 nM) greater than 45.8 µM.
`O=C(O[C@H]1[C@H](OC(=O)c2cccnc2)[C@@H](OC(=O)c2cccnc2)[C@H](OC(=O)c2cccnc2)[C@@H](OC(=O)c2cccnc2)[C@H]1OC(=O)c1cccnc1)c1cccnc1` [INOSITOL NIACINATE]: the IC50 cell viability by setting is: (ICRF193 0 nM) greater than 45.8 µM; (ICRF193 200 nM) greater than 45.8 µM.
In the case of `Cn1cc(C(=O)[C@@H]2CCc3[nH]cnc3C2)c2ccccc21` [Ramosetron hydrochloride], the IC50 cell viability by setting is: (ICRF193 0 nM) greater than 45.8 µM; (ICRF193 200 nM) greater than 45.8 µM.
For `O=C(O)[C@@H](S)[C@H](S)C(=O)O` [(2R,3R)-2,3-Dimercaptosuccinic acid], the IC50 cell viability by setting is: (ICRF193 0 nM) greater than 45.8 µM; (ICRF193 200 nM) greater than 45.8 µM.
For the molecule `C/C=C\c1ccc(O)c(OC)c1` [Isoeugenol], the IC50 cell viability reads like this: (ICRF193 0 nM) greater than 45.8 µM; (ICRF193 200 nM) greater than 45.8 µM.
Regarding `CC(C)CCC(=O)O[C@H]1CC[C@H]2[C@@H]3CCC4=CC(=O)CC[C@]4(C)[C@H]3CC[C@]12C` [Testosterone isocaproate], the IC50 cell viability was greater than 45.8 µM (ICRF193 0 nM) and greater than 45.8 µM (ICRF193 200 nM).
As to `Cc1cc(Nc2ccccc2C(=O)O)ccc1Cl` [2-[(4-Chloro-3-methylphenyl)amino]benzoic acid], the IC50 cell viability (ICRF193 0 nM) is greater than 45.8 µM and the IC50 cell viability (ICRF193 200 nM) is greater than 45.8 µM.
Consider `Clc1ccc(C(c2ccc(Cl)cc2)C(Cl)(Cl)Cl)cc1` [p,p'-DDT], for which the IC50 cell viability was greater than 45.8 µM (ICRF193 0 nM) and greater than 45.8 µM (ICRF193 200 nM).
Consider `CS(=O)(=O)c1ccc(C2=C(c3ccccc3)C(=O)OC2)cc1` [Rofecoxib], for which the IC50 cell viability is greater than 45.8 µM (ICRF193 0 nM) and greater than 45.8 µM (ICRF193 200 nM).
Regarding `CCN[C@H]1CN(CCCOC)S(=O)(=O)c2sc(S(N)(=O)=O)cc21` [Brinzolamide], the IC50 cell viability is greater than 45.8 µM (ICRF193 0 nM) and greater than 45.8 µM (ICRF193 200 nM).
Consider `CC1CCCCN1CCCOC(=O)c1ccc(OC2CCCCC2)cc1` (stereo not drawn) [Cyclomethycaine], for which the IC50 cell viability reads like this: (ICRF193 0 nM) greater than 45.8 µM; (ICRF193 200 nM) greater than 45.8 µM.
Take `O=C(O)Cc1sc(-c2ccccc2)nc1-c1ccc(Cl)cc1` [Fentiazac]: the IC50 cell viability is greater than 45.8 µM (ICRF193 0 nM) and greater than 45.8 µM (ICRF193 200 nM).
Turning to `c1ccc2ccccc2c1` [NAPHTHALENE, ZONE REFINED], the IC50 cell viability was greater than 45.8 µM (ICRF193 0 nM) and greater than 45.8 µM (ICRF193 200 nM).
As to `CCCCCCCCCCC[C@@H](C[C@@H]1OC(=O)[C@H]1CCCCCC)OC(=O)[C@H](CC(C)C)NC=O` [Orlistat], the IC50 cell viability is greater than 45.8 µM (ICRF193 0 nM) and greater than 45.8 µM (ICRF193 200 nM).
As to `COc1cccc(C(=O)CCN[C@@H](C)[C@H](O)c2ccccc2)c1` [l-Oxyfedrine hydrochloride], the IC50 cell viability was greater than 45.8 µM (ICRF193 0 nM) and greater than 45.8 µM (ICRF193 200 nM).
Take `Cc1ccccc1C(OCCN(C)C)c1ccccc1` (stereo not drawn) [Orphenadrine dihydrogen citrate]: the IC50 cell viability was greater than 45.8 µM (ICRF193 0 nM) and greater than 45.8 µM (ICRF193 200 nM).
Take `CN1CC(O)c2cc(N=NC(=N)N)c(O)cc21` (stereo not drawn) [ADRENOCHROME MONOAMINOGUANIDINE MESILATE ANHYDROUS]: the IC50 cell viability runs as follows: (ICRF193 0 nM) greater than 45.8 µM; (ICRF193 200 nM) greater than 45.8 µM.
`CCCCOC(=O)c1ccc(N)cc1` [Butyl 4-aminobenzoate]: the IC50 cell viability runs as follows: (ICRF193 0 nM) greater than 45.8 µM; (ICRF193 200 nM) greater than 45.8 µM.
For the molecule `CC(C)OC(=O)[C@H](C)N[P@](=O)(CO[C@H](C)Cn1cnc2c(N)ncnc21)Oc1ccccc1` [GS-7340], the IC50 cell viability runs as follows: (ICRF193 0 nM) greater than 45.8 µM; (ICRF193 200 nM) greater than 45.8 µM.
In the case of `CC(=O)O[C@H]1C[C@@H]2CC[C@@H]3[C@H](CC[C@@]4(C)[C@H]3C[C@H](N3CC[N+](C)(C)CC3)[C@@H]4OC(C)=O)[C@@]2(C)C[C@@H]1N1CC[N+](C)(C)CC1` [Pipecuronium bromide], the IC50 cell viability is greater than 45.8 µM (ICRF193 0 nM) and greater than 45.8 µM (ICRF193 200 nM).
In the case of `CN(C/C=C/C#CC(C)(C)C)Cc1cccc2ccccc12` [Terbinafine], the IC50 cell viability runs as follows: (ICRF193 0 nM) greater than 45.8 µM; (ICRF193 200 nM) greater than 45.8 µM.
`COc1ccc([C@@H]2Sc3ccccc3N(CCN(C)C)C(=O)[C@@H]2OC(C)=O)cc1` [Diltiazem]: the IC50 cell viability is, setting by setting: (ICRF193 0 nM) greater than 45.8 µM; (ICRF193 200 nM) greater than 45.8 µM.
On to `Nc1ccc([As](=O)(O)O)cc1` [(4-Aminophenyl)arsonic acid], for which the IC50 cell viability (ICRF193 0 nM) was greater than 45.8 µM and the IC50 cell viability (ICRF193 200 nM) was greater than 45.8 µM.
Turning to `COc1ccc2cc(CCC(C)=O)ccc2c1` [Nabumetone], the IC50 cell viability was greater than 45.8 µM (ICRF193 0 nM) and greater than 45.8 µM (ICRF193 200 nM).
On to `COc1cc2c(cc1OC)C13CC[N+]4([O-])CC5=CCOC6CC(=O)N2C1C6C5CC34` (stereo not drawn) [Brucine-N-oxide], for which the IC50 cell viability is, setting by setting: (ICRF193 0 nM) greater than 45.8 µM; (ICRF193 200 nM) greater than 45.8 µM.
`Cc1nnc(C(=O)NC(C)(C)c2nc(C(=O)NCc3ccc(F)cc3)c(O)c(=O)n2C)o1` [Raltegravir] had an IC50 cell viability (ICRF193 0 nM) greater than 45.8 µM and an IC50 cell viability (ICRF193 200 nM) greater than 45.8 µM.
With `O[C@@H]1CO[C@H]2[C@@H]1OC[C@@H]2O` [Isosorbide], the IC50 cell viability was greater than 45.8 µM (ICRF193 0 nM) and greater than 45.8 µM (ICRF193 200 nM).
With `CCCC(=O)O[C@]1(C(=O)COC(=O)CC)CC[C@H]2[C@@H]3CCC4=CC(=O)CC[C@]4(C)[C@H]3[C@@H](O)C[C@@]21C` [Hydrocortisone buteprate], the IC50 cell viability by setting is: (ICRF193 0 nM) greater than 45.8 µM; (ICRF193 200 nM) greater than 45.8 µM.
The molecule `CCOCCOC(=O)/C=C/c1ccc(OC)cc1` [Cinoxate] displayed an IC50 cell viability (ICRF193 0 nM) greater than 45.8 µM and an IC50 cell viability (ICRF193 200 nM) greater than 45.8 µM.
Take `Nc1nc2c(ncn2COC(CO)CO)c(=O)[nH]1` [Ganciclovir]: the IC50 cell viability by setting is: (ICRF193 0 nM) greater than 45.8 µM; (ICRF193 200 nM) greater than 45.8 µM.
On to `OC/C=C/c1ccccc1` [Cinnamyl alcohol], for which the IC50 cell viability is, setting by setting: (ICRF193 0 nM) greater than 45.8 µM; (ICRF193 200 nM) greater than 45.8 µM.
Take `C[C@H](NCc1ccc(OCc2cccc(F)c2)cc1)C(N)=O` [Safinamide]: the IC50 cell viability runs as follows: (ICRF193 0 nM) greater than 45.8 µM; (ICRF193 200 nM) greater than 45.8 µM.
On to `CC(=O)OCC[N+](C)(C)C` [Acetylcholine chloride], for which the IC50 cell viability runs as follows: (ICRF193 0 nM) greater than 45.8 µM; (ICRF193 200 nM) greater than 45.8 µM.
As for `Oc1ccccc1-c1ccccc1` [Sodium 2-phenylphenate tetrahydrate], the IC50 cell viability by setting is: (ICRF193 0 nM) greater than 45.8 µM; (ICRF193 200 nM) greater than 45.8 µM.
On to `CC(COc1ccccc1)N(CCCl)Cc1ccccc1` (stereo not drawn) [Phenoxybenzamine hydrochloride], for which the IC50 cell viability reads like this: (ICRF193 0 nM) greater than 45.8 µM; (ICRF193 200 nM) greater than 45.8 µM.
In the case of `O=P(O)(O)OC(CO)CO` [beta-Glycerol phosphate disodium salt pentahydrate], the IC50 cell viability was greater than 45.8 µM (ICRF193 0 nM) and greater than 45.8 µM (ICRF193 200 nM).
Take `COC(=O)[C@H]1[C@@H](OC(=O)c2ccccc2)C[C@@H]2CC[C@H]1N2C` [(-)-Cocaine hydrochloride]: the IC50 cell viability was greater than 45.8 µM (ICRF193 0 nM) and greater than 45.8 µM (ICRF193 200 nM).
With `N[C@H](CO)C(=O)O` [D-SERINE], the IC50 cell viability is, setting by setting: (ICRF193 0 nM) greater than 45.8 µM; (ICRF193 200 nM) greater than 45.8 µM.
For `CCc1ccc(CCOc2ccc(CC3SC(=O)NC3=O)cc2)nc1` (stereo not drawn) [Pioglitazone hydrochloride], the IC50 cell viability is greater than 45.8 µM (ICRF193 0 nM) and greater than 45.8 µM (ICRF193 200 nM).
Take `CCCc1cc(=O)[nH]c(=S)[nH]1` [Propylthiouracil]: the IC50 cell viability is greater than 45.8 µM (ICRF193 0 nM) and greater than 45.8 µM (ICRF193 200 nM).
Take `CCn1nc(C(=O)O)c(=O)c2cc3c(cc21)OCO3` [Cinoxacin]: the IC50 cell viability runs as follows: (ICRF193 0 nM) greater than 45.8 µM; (ICRF193 200 nM) greater than 45.8 µM.
For `OCCN(CCO)c1nc(N2CCCCC2)c2nc(N(CCO)CCO)nc(N3CCCCC3)c2n1` [Dipyridamole], the IC50 cell viability runs as follows: (ICRF193 0 nM) greater than 45.8 µM; (ICRF193 200 nM) greater than 45.8 µM.
On to `COc1ccc2[nH]c([S+]([O-])Cc3ncc(C)c(OC)c3C)nc2c1` (stereo not drawn) [Omeprazole], for which the IC50 cell viability runs as follows: (ICRF193 0 nM) greater than 45.8 µM; (ICRF193 200 nM) greater than 45.8 µM.
For `CC1(C)[C@@H](OC(=O)CCC(=O)O)CC[C@]2(C)[C@H]3C(=O)C=C4[C@@H]5C[C@@](C)(C(=O)O)CC[C@]5(C)CC[C@@]4(C)[C@]3(C)CC[C@@H]12` [Carbenoxolone sodium], the IC50 cell viability was greater than 45.8 µM (ICRF193 0 nM) and greater than 45.8 µM (ICRF193 200 nM).
`CCN(CC)CCOC(=O)C(Cc1cccc2ccccc12)CC1CCCO1` (stereo not drawn) [Nafronyl oxalate] returned an IC50 cell viability (ICRF193 0 nM) greater than 45.8 µM and an IC50 cell viability (ICRF193 200 nM) greater than 45.8 µM.
With `Cc1c(Cl)c(=O)oc2cc(OP(=O)(OCCCl)OCCCl)ccc12` [Haloxon], the IC50 cell viability (ICRF193 0 nM) was greater than 45.8 µM and the IC50 cell viability (ICRF193 200 nM) was greater than 45.8 µM.
As for `Cc1ccc2c(Cl)cc(Cl)c(O)c2n1` [5,7-Dichloro-8-hydroxy-2-methylquinoline], the IC50 cell viability runs as follows: (ICRF193 0 nM) greater than 45.8 µM; (ICRF193 200 nM) greater than 45.8 µM.
For `C1CNCCN1` [Piperazine], the IC50 cell viability reads like this: (ICRF193 0 nM) greater than 45.8 µM; (ICRF193 200 nM) greater than 45.8 µM.
As for `Oc1ccc(C2CNCCc3c2cc(O)c(O)c3Cl)cc1` (stereo not drawn) [Fenoldopam], the IC50 cell viability is, setting by setting: (ICRF193 0 nM) greater than 45.8 µM; (ICRF193 200 nM) greater than 45.8 µM.
For the molecule `O=c1[nH]c(=O)n([C@@H]2O[C@H](CO)[C@@H](O)[C@@H]2O)cc1/C=C/Br` [Bravavir], the IC50 cell viability by setting is: (ICRF193 0 nM) greater than 45.8 µM; (ICRF193 200 nM) greater than 45.8 µM.
On to `CCCC[N+]1(C)[C@@H]2C[C@@H](OC(=O)[C@H](CO)c3ccccc3)C[C@H]1[C@@H]1O[C@@H]12` (stereo partly drawn) [Butylscopolamine bromide], for which the IC50 cell viability runs as follows: (ICRF193 0 nM) greater than 45.8 µM; (ICRF193 200 nM) greater than 45.8 µM.
The molecule `CNC1CCCN(c2c(F)cc3c(=O)c(C(=O)O)cn(C4CC4)c3c2OC)C1` (stereo not drawn) [Balofloxacin] returned an IC50 cell viability (ICRF193 0 nM) greater than 45.8 µM and an IC50 cell viability (ICRF193 200 nM) greater than 45.8 µM.
